The source of these data is paper PMC11489206, “Transport of perfluoroalkyl substances across human induced pluripotent stem cell-derived intestinal epithelial cells in comparison with primary human intestinal epithelial cells and Caco-2 cells” (Archives of Toxicology, 2024).

For series [1] the following is noted: ref Ayehunie et al. (2005); cited from earlier work.
Series [2] can be described thus: Transport study across EpiIntestinal microtissues. The note with it: human. Here is the method:
The human EpiIntestinal small intestinal microtissues, consisting of epithelial cells and an underlying lamina propria containing intestinal fibroblasts, were obtained from MatTek Life Sciences (Ashland, USA). Cell culture inserts (8.8 mm ID) were placed in 12-well plates and cells were maintained in 100 µl maintenance medium (MatTek Life Sciences) in the apical compartment and 5 ml maintenance medium in the basolateral compartment upon arrival. The transport studies were performed 1 day after arrival.
(§1) Transport studies were performed in Caco-2 cells, hiPSC-derived IECs and EpiIntestinal microtissues. To that end, Caco-2 cell layers were differentiated for 21 days and hiPSCs were differentiated into IEC layers for 26 days, as described above. EpiIntestinal microtissues were subjected to transport studies 1 day after arrival. […] For all models, PFAS transport was assessed in apical to basolateral, and basolateral to apical direction using HBSS containing a mixture of PFASs containing 1 µM of each PFAS. See Supplementary Data for a detailed description of the method used for the transport studies of the model compounds and PFASs.
(§2) Prior to exposure to the transport study compounds, the cells were washed with transport medium (HBSS; Sigma). […] 100 µL aliquots were collected from the basolateral compartment and replaced with the same volume HBSS at settled time points (0, 15, 30 and 60 min). For basolateral to apical transport in the EpiIntestinal microtissues, 0.2 mL HBSS was added to the apical compartment and 0.5 mL HBSS containing a mixture of PFASs containing 1 µM of each PFAS, was added to the basolateral compartment. 100 µL aliquots were collected from the apical compartment and replaced with the same volume of HBSS at settled time points (0, 15, 30 and 60 min). For apical to basolateral transport across the Caco-2 cell layers and hiPSC-derived IEC layers, 1.2 mL HBSS was added to the basolateral compartment and 0.4 mL HBSS containing either model compounds (10 µM) or a mixture of PFASs containing 1 µM of each PFAS, was added to the apical compartment. 100 µL aliquots were collected from the basolateral compartment and replaced with the same volume of HBSS at settled time points (0, 7.5, 15, 30 and 60 min for the model compounds with both models and the PFASs with the hiPSC-derived IEC layers and 0, 15, 30 and 60 min for PFASs with the Caco-2 cell layers). For basolateral to apical transport, 0.4 mL HBSS was added to the apical compartment and 1.2 mL HBSS containing 10 µM of the model compounds or a mixture of PFASs containing 1 µM of each PFAS, was added to the basolateral compartment. 100 µL aliquots were collected from the apical compartment and replaced with the same volume of HBSS at settled time points (0, 7.5, 15, 30 and 60 min for the model compounds with both models and the PFASs with the hiPSC-derived IEC layers and 0, 15, 30 and 60 min for PFASs with the Caco-2 cell layers). After 60 minutes, all liquid was collected from the apical and basolateral compartment and the cells were lysed in 200 µL RIPA buffer (Thermo Fisher Scientific), and chemicals were quantified in the different compartments (apical, basolateral and cells) in order to calculate the mass balance.
(§3) The apparent permeability coefficient (Papp, cm/s) was calculated using the following equation: […]
where A is the surface area (cm^2), dQ is the amount of the compound transported (nmol) over the respective time interval dt (s) and C0 is the initial concentration in the donor compartment (µM).

Series [3] is described as follows: Transport study across hiPSC-derived IEC layers. To be noted: human. The method, then: For differentiation into IECs, definitive endoderm cells were subsequently differentiated into intestinal stem cells by changing medium into DMEM/F12 containing 2% fetal bovine serum, 1% GlutaMAX (Gibco) and 250 ng/ml FGF2 (R&D Systems). After 4 days, cells were dissociated using Accutase and seeded onto polyester Transwell inserts (0.4 µm, Corning) coated with Growth Factor Reduced Matrigel #356231. Cells were cultured for 7 days in intestinal differentiation medium (DMEM/F-12 containing 2% fetal bovine serum, 1% non-essential amino acids (Gibco), 1 × B27 (Gibco), 1 × N2 (Gibco), 1% penicillin/streptomycin (Gibco) and 2 mM L-glutamine (Gibco)) supplemented with 20 ng/ml EGF (R&D Systems) and 30 µM Forskolin (Sigma). ROCK inhibitor, y-27632 (final concentration 10 µM; Stem Cell Technologies), was added during the initial 24 h after seeding to reduce cell death. The cells were subsequently cultured for 12 days in intestinal differentiation medium supplemented with 20 ng/ml EGF, 30 µM Forskolin, 5 µM 5-aza-2′-deoxycytidine (Sigma), 20 µM PD98059 (Stem Cell Technologies) and 0.5 µM A-83–01 (Sigma). The medium was refreshed every 2–3 days. Barrier integrity was determined by measuring apical to basolateral translocation of Lucifer yellow (see Supplementary Data for a detailed description).
as §1
as §2, with “layers).” for “layers). After 60 minutes, all liquid was collected from the apical and basolateral compartment and the cells were lysed in 200 µL RIPA buffer (Thermo Fisher Scientific), and chemicals were quantified in the different compartments (apical, basolateral and cells) in order to calculate the mass balance.”

Series [4] is described as follows: Transport study across Caco-2 cell layers. The note with it: human, Caco-2. Here is the method: Human colorectal adenocarcinoma cells (Caco-2, HTB-37) were obtained from American Type Culture Collection (ATCC, Manassas, VA). Cells were cultured in a humidified incubator (37°C, 5% CO2) in Dulbecco’s modified Eagle’s medium (DMEM) supplemented with 10% heat-inactivated fetal bovine serum (Gibco, Thermo Fisher Scientific, Waltham, MA), 1% non-essential amino acids (Gibco) and 1% penicillin/streptomycin (Sigma). For experiments, Caco-2 cells below passage number 50 were used within 10 passages. They were harvested at 80% confluence using Trypsin/EDTA (0.25%/0.05%; PAN Biotech, Aidenbach, Germany) and seeded at a density of 4 × 10^5 cells/cm^2 into inserts with a polycarbonate membrane (0.4 µm pore, Corning, New York, NY). After 21 days of differentiation (using 500 µl cell culture medium in the apical and 1500 µl in the basolateral compartment), monolayer integrity was determined by measuring transepithelial electrical resistance (TEER) with a Millicell ERS Volt-Ohm meter (Millipore, Bedford, MA).
as §1, §2, §3

A further series has as its system EpiIntestinal model. The note with it: apical to basolateral, ref Ayehunie et al. (2005); cited from earlier work.
The next series concerns Caco-2 model. To be noted: cited from earlier work.

Read-outs that look alike come from different tables or passages of the source. Marks after values point to notes of the source that are not given here.

As to `CC(C)NCC(O)COc1ccc(CC(N)=O)cc1` (centres unmarked) [Atenolol, atenolol], in series [1], the “Fa (fraction absorbed in humans)” value was 50%.

`O=S(=O)(O)C(F)(F)C(F)(F)C(F)(F)C(F)(F)C(F)(F)C(F)(F)F` [PFHxS, perfluorohexane sulfonate]: in series [2], the Papp A→B at 60 min, 1 µM stood at 12.5 ± 0.78 ×10⁻⁶ cm/s; the Papp B→A at 60 min, 1 µM was found to be 14.1 ± 0.67 ×10⁻⁶ cm/s; the efflux ratio at 60 min, 1 µM stood at 1.13. Besides, in series [3], the Papp A→B at 60 min, 1 µM is 3.95 ± 0.47 ×10⁻⁶ cm/s; the Papp B→A at 60 min, 1 µM came out at 6.71 ± 0.43 ×10⁻⁶ cm/s; the efflux ratio at 60 min, 1 µM was 1.7. For the same compound, in series [4], the Papp A→B at 60 min, 1 µM is 8.78 ± 1.76 ×10⁻⁶ cm/s; the Papp B→A at 60 min, 1 µM worked out at 11.6 ± 0.2 ×10⁻⁶ cm/s; the efflux ratio at 60 min, 1 µM is 1.33.

As to `O=C(O)C(F)(F)C(F)(F)C(F)(F)C(F)(F)C(F)(F)C(F)(F)C(F)(F)C(F)(F)F` [PFNA, perfluorononanoic acid], in series [2], the Papp A→B at 60 min, 1 µM is 8.48 ± 0.57 ×10⁻⁶ cm/s; the Papp B→A at 60 min, 1 µM was 7.51 ± 0.5 ×10⁻⁶ cm/s; the efflux ratio at 60 min, 1 µM is 0.89. For the same compound, in series [3], the Papp A→B at 60 min, 1 µM was determined as 1.95 ± 0.27 ×10⁻⁶ cm/s; the Papp B→A at 60 min, 1 µM is 2.88 ± 0.28 ×10⁻⁶ cm/s; the efflux ratio at 60 min, 1 µM came to 1.48. For the same compound, in series [4], the Papp A→B at 60 min, 1 µM worked out at 4.55 ± 0.56 ×10⁻⁶ cm/s; the Papp B→A at 60 min, 1 µM is 3.14 ± 0.33 ×10⁻⁶ cm/s; the efflux ratio at 60 min, 1 µM came out at 0.69.

Take `O=C(O)C(F)(F)C(F)(F)C(F)(F)C(F)(F)C(F)(F)C(F)(F)C(F)(F)F` [PFOA, perfluorooctanoic acid]: the Papp A→B at 60 min, 1 µM came out at 7.31 ± 0.43 ×10⁻⁶ cm/s in series [2], 3.27 ± 0.45 ×10⁻⁶ cm/s in series [3] and 4.23 ± 0.41 ×10⁻⁶ cm/s in series [4]. Also, the Papp B→A at 60 min, 1 µM in series [2] came to 6.99 ± 0.82 ×10⁻⁶ cm/s; in series [3], 5.3 ± 0.42 ×10⁻⁶ cm/s; in series [4], 5.75 ± 0.97 ×10⁻⁶ cm/s. Also, the efflux ratio at 60 min, 1 µM in series [2] was 0.96; in series [3], 1.62; in series [4] it was 1.36.

`O=S(=O)(O)C(F)(F)C(F)(F)C(F)(F)C(F)(F)C(F)(F)C(F)(F)C(F)(F)C(F)(F)F` [PFOS, perfluorooctane sulfonate]: in series [2], the Papp A→B at 60 min, 1 µM was 5.97 ± 0.05 ×10⁻⁶ cm/s; the Papp B→A at 60 min, 1 µM came to 3.31 ± 0.22 ×10⁻⁶ cm/s; the efflux ratio at 60 min, 1 µM turned out to be 0.55. Moreover, in series [3], the Papp A→B at 60 min, 1 µM came to 0.63 ± 0.08 ×10⁻⁶ cm/s; the basolateral-to-apical permeability (Papp B→A) at 60 min, 1 µM was 0.82 ± 0.17 ×10⁻⁶ cm/s; the efflux ratio at 60 min, 1 µM is 1.31. Further, in series [4], the Papp A→B at 60 min, 1 µM was 2.88 ± 0.2 ×10⁻⁶ cm/s; the Papp B→A at 60 min, 1 µM was 1.06 ± 11 ×10⁻⁶ cm/s; the efflux ratio at 60 min, 1 µM is 0.37.

Take `CC(C)NCC(O)COc1cccc2ccccc12` (centres unmarked) [Propranolol, propranolol]: the Papp A→B at 60 min, 10 µM in series [3] was 26.7 ± 1.4 ×10⁻⁶ cm/s; in series [4], 11.8 ± 1.07 ×10⁻⁶ cm/s. The figures for the apparent permeability from basolateral to apical (Papp B→A) at 60 min, 10 µM in series [3] and in series [4] were 17.9 ± 0.93 ×10⁻⁶ cm/s and 8.13 ± 0.12 ×10⁻⁶ cm/s, respectively. For the same compound, in the series on EpiIntestinal model, the “Average Papp A–B” value is recorded as 9.4 ± 5.4^b × 10^–6 cm/s. Also, the “Average Papp A - B” value in the series with Caco-2 model (ref Artursson et al. 1991) was 41.9 ×10⁻⁶ cm/s; in the series on Caco-2 model (ref Ayehunie et al. 2018), 12.9 ×10⁻⁶ cm/s; in the series on Caco-2 model (ref Grès et al. 1998) it was 34.4 ×10⁻⁶ cm/s; in the series with Caco-2 model (ref Logoyda et al. 2018), 36.13 ×10⁻⁶ cm/s; in the series on Caco-2 model (ref Nožinić et al. 2010), 0.12 ×10⁻⁶ cm/s; with Caco-2 model (ref Walgren et al. 1999) it was 35.3 ×10⁻⁶ cm/s. The “Average Papp A - B” value in the series on Caco-2 model (ref Yazdanian et al. 1998) was 21.8 ×10⁻⁶ cm/s.

In series [3], `C=C[C@H]1C[N@@]2CC[C@H]1C[C@@H]2[C@@H](O)c1ccnc2ccc(OC)cc12` [Quinidine, quinidine] had a Papp A→B at 60 min, 10 µM of 22.3 ± 0.4 ×10⁻⁶ cm/s and a Papp B→A at 60 min, 10 µM of 25.5 ± 1.17 ×10⁻⁶ cm/s. In addition, the “Average Papp A–B” value with EpiIntestinal model is 7.9 ± 2.7^a × 10^–6 cm/s.

`CC(=O)CC(c1ccccc1)c1c(O)c2ccccc2oc1=O` (centres unmarked) [Warfarin, warfarin] came in with a Papp A→B at 60 min, 10 µM in series [4] of 17.9 ± 1.39 ×10⁻⁶ cm/s. Moreover, the Papp B→A at 60 min, 10 µM in series [4] came out at 24.5 ± 0.94 ×10⁻⁶ cm/s. In addition, the “Average Papp A–B” value with EpiIntestinal model is recorded as 36.7 ± 16.8^a × 10^–6 cm/s. For the same compound, the “Average Papp A - B” value was 38.3 ×10⁻⁶ cm/s in the series with Caco-2 model (ref Artursson et al. 1991), 28.6 ×10⁻⁶ cm/s in the series on Caco-2 model (ref Ayehunie et al. 2018), 22.7 ×10⁻⁶ cm/s in the series with Caco-2 model (ref Gschwind et al. 2013) and 21.1 ×10⁻⁶ cm/s with Caco-2 model (ref Yazdanian et al. 1998).
